Assays:
[1] = biological target: C. parvum PI(4)K (Cryptosporidium parvum, UniProt Q5CVD3); test: CpPI(4)K enzymatic assay (Transcreener ADP2 FP); assay type: biochemical
Source text: The full-length coding sequence of C. parvum PI(4)K (cgd8_4500, 1114 amino acids) was codon-optimized for baculovirus expression, synthesized and cloned into pFastBac-HTb (Invitrogen 10584-027) in frame with the amino-terminal polyhistidine tag using the BamHI and Hindlll restriction sites. Recombinant pFastBacHTb-CpPI(4)K bacmid clones were generated by site-specific transposition in E. coli DH10Bac (Invitrogen 10361-012). The bacmid sequence was confirmed by direct DNA sequencing to confirm a lack of mutations across the whole gene. The subsequent steps for bacmid isolation, transfection and selection of the recombinant viruses were performed according to the manufacturer's protocol (Bac-to-Bac system #10359, Invitrogen).
SF9 cells, cultured in SF-900 III serum-free medium, were transfected with recombinant baculovirus at 1/200 (v/v) and incubated at 27° C. for 72 h. The pellets were collected after centrifugation and re-suspended in cell lysis buffer (20 mM Tris-HCl, pH 7.5, 300 mM NaCl, 1 mM DTT, 20 mM imidazole, 0.01% Triton X-100 and 1× complete protease inhibitor cocktail without EDTA (Roche Diagnostics 04693116001)). The cell suspension was lysed by sonication and the clarified supernatant was loaded onto a 1 ml HisTrap affinity column (GE Healthcare) pre-equilibrated with buffer A (20 mM Tris-HCl, pH 7.5, 300 mM NaCl, 1 mM DTT, 20 mM Imidazole, and 1× complete protease inhibitor cocktail without EDTA). The column was washed with buffer B (buffer A containing 45 mM imidazole) and the bound protein of interest was eluted with buffer C (buffer A with 90 mM imidazole). The fractions containing CpPI(4)K were pooled, concentrated using Amicon Ultra-15 and purified by a gel-filtration column (Hi-Load 26/60 Superdex 200, GE Healthcare) equilibrated with 20 mM Tris, pH 7.5, 300 mM NaCl, 1 mM DTT and 1× protease inhibitor cocktail without EDTA. The concentrations of the purified protein (Mw 132.39 kda) was determined by using the protein molar extinction coefficient (ε280 nm=133,810 M^−1 cm^−1). Aliquots were flash frozen in liquid nitrogen and immediately stored at −80° C.
The CpPI(4)K enzymatic assay was performed as described earlier with a some modifications (McNamara et al., 2013). Briefly, L-α-phosphatidylinositol (Avanti Polar Lipid 840046), dissolved in 3% n-octylglucoside (Roche Diagnostics 10634425001), was used as the lipid substrate for the PI(4)K activity assay. CpPI(4)K was assayed using Transcreener ADP2 FP detection kit (BellBrook 3010) in a black, solid 384-well plate (Corning 3575). The final assay volume was 10 μl and contained 3 nM of the respective CpPI(4)K construct in 10 mM Tris, pH 7.5, 1 mM DTT, 3 μM ATP, 5 mM Mn2+, 0.05% Triton X-100 and 10 μM phosphatidylinositol/octylglucoside. The enzyme reaction was performed for 50 minutes at room temperature and was stopped by adding 10 μl of detection mix containing 1× stop buffer (50 mM HEPES, pH7.5, 400 mM NaCl, 20 mM EDTA, and 0.02% Brij-35), 2 nM AMP Alexa Fluor 633 tracer, and 20 μg ml^−1 ADP antibody. Fluorescence polarization measurements were performed on the Infinite M1000 plate reader (Tecan) with λex=635 nm and λem=680 nm (20-nm bandwidth). IC50 values were calculated using Graphpad Prism software.
The inhibitory concentration (IC50) of selected compounds on the C. parvPI(4)K activity is provided in the third column [Cp_PI4K_enz IC50 (μM)] of Table II.

[2] = Cytotoxicity against HepG2; assay type: cell-based; conditions: human, HepG2 cells (ATCC HB-8065), 5 days exposure
Description: Cytotoxicity against HepG2 (ATCC# HB-8065), a human liver cancer cell line, was determined as previously described earlier (Manjunatha et al., 2015). Briefly, cells were seeded at a density of 10^5 cells per well, incubated at 37° C. for 24 h and exposed to two-fold serially-diluted compounds for 5 days. Cell viability was monitored using the Cell Proliferation Kit II (Invitrogen). The cytotoxicity values of selected compounds are reported in the fifth column [HepG2 CC50 (μM)] of Table II.

[3] = tested on: Cryptosporidium parvum; test: Cytopathic effect (CPE) based assay, C. parvum infected HCT-8 cells; conditions: HCT-8 host cell viability (CellTiter-Glo), 48 hours treatment, read-out: Cp CPE EC50
Procedure, shortened: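 HCT-8 cells were batch-infected with excysted C. parvum (Iowa isolate) oocysts at MOI 1:2 (host:parasite) for 3 h at 37 °C, then seeded and incubated 24 h before compound addition. Compounds were given as 3-fold dilution series (final DMSO <0.5%). Host-cell loss (cytopathic effect) was read as viability with CellTiter-Glo.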

[4] = tested on: C. parvum; test: High content imaging assay, C. parvum infected HCT-8 cells; assay type: cell-based; conditions: Cryptosporidium parvum, percentage of infected HCT-8 cells, 48 hours treatment, read-out: Cp HCl IC50
Description: Human ileocecal colorectal adenocarcinoma cells (HCT-8 [HRT-18] ATCC, CCL-34) were maintained in T-175 flasks (Corning, 431080) in complete growth medium (RPMI-1640 medium (Gibco, 11875) supplemented with 10% heat-inactivated horse serum (Gibco, 26050), 1×MEM non-essential amino acids (Gibco, 11140), 10 mM HEPES (Gibco, 15630), 100 units/mL penicillin, and 100 units/mL streptomycin) at 37° C. and 5% CO2 in a humidified incubator. Cultures were passaged twice weekly using 10 mL of 1×Phosphate-Buffered Saline (PBS) without Ca^2+ and Mg^2+ (Gibco, 20012) for washing and 3-5 mL per T-175 flask of TrypLE Express Enzyme (Gibco, 12604) for dissociation of adherent cells.
Cryptosporidium parvum oocysts purchased from the Sterling Laboratory, University of Arizona (Iowa isolate) were purified from infected calf feces using discontinuous sucrose and cesium chloride centrifugation gradients and stored in PBS solution containing 0.01% Tween 20, 100 units/mL penicillin and 100 units/mL gentamicin.
Excystation and infection protocols were developed following established methods with some modifications (Gut & Nelson, 1999, Upton et aL, 1995, Bessoff et aL, 2013). Briefly, oocysts were primed in 1 mL of 10 mM hydrochloric acid in 1× Hank's Balanced Salt Solution (HBSS) (Gibco, 14025) for 10 minutes with agitation at 1000 rpm, 37° C. on an Eppendorf thermomixer, then washed twice with 1 mL of room temperature non-acidic 1× HBSS by centrifugation at 13,000 rpm for 3 minutes at 25° C. Primed oocysts were further excysted at a concentration of 1×10^6 oocysts/μL in parasite infection medium consisting of a pre-warmed and pre-gassed 1:1 formulation of Leibovitz's L-15 medium (Gibco, 11415) and UltraCULTURE medium (Lonza, 12-725F) supplemented with 2 mM sodium taurocholate (Sigma, 86339-1), 10% heat-inactivated horse serum, and 200 μM L-ascorbic acid (Sigma, 95210) at 25° C. for 10 minutes. HCT-8 monolayer cells were infected with excysted cryptosporidium at a specified multiplicity of infection (MOI). All dilutions for subsequent assays were performed in parasite infection medium without sodium taurocholate. Pre-excysted oocysts were enumerated microscopically using a C-Chip disposable hemocytometer (NanoEnTek, DHC-N01).
Compound powders were dissolved in neat DMSO (Fisher, D4121) to 10 mM and stored at 4° C. prior to dilution into source plates. Dilutions were carried out using a Microlab STAR liquid handler (Hamilton) to obtain compound source plates containing the ten-point or eight-point three fold dilutions starting from 10 mM in duplicates. Source plates were stored at 4° C. prior to spotting into assay plates. Before administration, all compound source plates were equilibrated to room temperature. A specified volume of compounds from source plate were spotted to assay plate using an Echo Acoustic liquid handler (LABCYTE, 550) so that the final DMSO concentration was less than 0.5%. Each assay plate a specified number of DMSO-treated negative control wells and a well-studied potent active compound at 100 nM as positive control. As a quality control, all positive and negative-control wells were used to calculate a Z′-value and signal to noise ratio (S:N) for each plate.
Imaging assays were developed following established Cryptosporidium spp labeling and in vitro infection models with some modifications (Bessoff et aL, 2013, Gut & Nelson, 1999). Briefly, 2×10^4 HCT-8 cells per well were seeded into 384-well, flat black clear-bottom OPERA assay plates (Greiner, 789071-G) at 20 μL per well in complete growth medium using a Multidrop Combi liquid handler (ThermoScientific, 5840300) and standard tube dispensing cassette (ThermoScientific, 24072670) and incubated for 24 hours at 37° C. The HCT-8 cells were infected with 10 μL per well of 1×10^4 excysted C. parvum oocysts (host to parasite MOI of 1:0.5) or 10 μL per well of 4×10^4 excysted C. hominis oocysts (MOI 1:2) in parasite infection medium using the Multidrop and incubated at 37° C. […]

C. parvum PI(4)K, sequence (Q5CVD3 entry or part of it): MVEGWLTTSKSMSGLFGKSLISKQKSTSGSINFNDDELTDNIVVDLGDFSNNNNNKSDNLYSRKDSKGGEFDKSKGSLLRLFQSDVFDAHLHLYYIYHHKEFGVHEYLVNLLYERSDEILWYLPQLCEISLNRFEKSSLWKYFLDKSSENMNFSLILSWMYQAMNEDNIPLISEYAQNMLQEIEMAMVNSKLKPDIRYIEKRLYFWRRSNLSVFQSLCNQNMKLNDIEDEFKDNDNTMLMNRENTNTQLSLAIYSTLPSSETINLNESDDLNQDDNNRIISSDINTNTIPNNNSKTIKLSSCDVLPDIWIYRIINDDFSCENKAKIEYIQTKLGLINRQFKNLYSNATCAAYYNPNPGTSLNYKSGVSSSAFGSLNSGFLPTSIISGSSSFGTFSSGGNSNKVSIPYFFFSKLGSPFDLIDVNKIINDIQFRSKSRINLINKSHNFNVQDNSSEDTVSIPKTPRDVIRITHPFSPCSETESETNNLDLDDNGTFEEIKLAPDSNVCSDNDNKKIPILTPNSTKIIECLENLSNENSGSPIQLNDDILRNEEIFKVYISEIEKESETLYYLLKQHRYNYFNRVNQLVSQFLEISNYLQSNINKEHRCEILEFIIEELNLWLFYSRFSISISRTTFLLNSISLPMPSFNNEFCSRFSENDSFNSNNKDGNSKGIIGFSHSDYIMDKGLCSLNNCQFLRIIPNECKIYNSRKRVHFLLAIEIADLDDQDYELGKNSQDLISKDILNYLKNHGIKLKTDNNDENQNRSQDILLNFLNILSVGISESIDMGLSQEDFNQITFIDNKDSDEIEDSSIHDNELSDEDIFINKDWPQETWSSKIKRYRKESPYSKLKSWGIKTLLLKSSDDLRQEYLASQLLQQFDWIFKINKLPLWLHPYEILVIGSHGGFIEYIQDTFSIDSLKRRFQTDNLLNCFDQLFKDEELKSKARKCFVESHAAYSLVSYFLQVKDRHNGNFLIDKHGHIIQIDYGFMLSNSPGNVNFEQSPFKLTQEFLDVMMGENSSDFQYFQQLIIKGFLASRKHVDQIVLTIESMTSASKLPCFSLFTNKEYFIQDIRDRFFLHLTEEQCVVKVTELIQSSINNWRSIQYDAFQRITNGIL

Compound	IC50 [1]	CC50 at 5 days [2]	EC50 [3]	IC50 [4]
CN(C(=O)c1ccn2ncc(-c3ccc(C(N)=O)cc3)c2c1)c1ccc(C#N)cc1 [Example 19]	3 nM	5910 nM	37 nM	
CN(C(=O)c1ccn2ncc(-c3ccc(C(N)=O)cn3)c2c1)c1ccc(C#N)cc1 [Example 27]	140 nM		815 nM	
CC(C)[C@H](N)C(=O)Nc1ccc(-c2cnn3ccc(C(=O)N(C)c4ccc(C#N)cc4)cc23)cc1 [Example 45]	239 nM		332 nM	
CN(C(=O)c1ccn2ncc(-c3cnc4[nH]ccc4c3)c2c1)c1ccc(C#N)cn1 [Example 53]	47 nM		550 nM	
CN(C(=O)c1ccn2ncc(-c3ccc(N)nc3)c2c1)c1ccc(C#N)cn1 [Example 54]	74 nM	> 50000 nM	324 nM	
CC(Cn1cccn1)N(C(=O)c1ccn2ncc(-c3ccc(C(N)=O)cc3)c2c1)c1ccc(C#N)cn1 (centres unmarked) [Example 77]	50 nM	29300 nM	582 nM	
CNC(=O)c1ccc(-c2cnn3ccc(C(=O)N(C)c4ccc(C#N)cc4)cc23)cn1 [Example 97]	73 nM	31100 nM	241 nM	
CNC(=O)c1ccc(-c2cnn3ccc(C(=O)N(C)c4ccc(C(F)(F)F)cc4)cc23)cc1 [Example 103]		8060 nM	7 nM	8 nM
CNC(=O)c1ccc(-c2cnn3ccc(C(=O)N(CC4CC4)c4ccc(C#N)cn4)cc23)cc1 [Example 117]	7 nM	4330 nM	505 nM	
CNC(=O)c1ccc(-c2cnn3ccc(C(=O)N(c4ccc(C#N)cn4)C4CCCC4)cc23)cc1 [Example 126]	71 nM	22100 nM	410 nM	
CNC(=O)c1ccc(-c2cnn3ccc(C(=O)N(c4ccc(C(F)(F)F)cn4)C(C)C)cc23)cn1 [Example 152]		14900 nM	456 nM	
CNC(=O)c1ccc(-c2cnn3ccc(C(=O)N(c4ccc(C#N)cn4)C(C)C)cc23)nc1 [Example 154]		45700 nM	964 nM	
CNC(=O)c1ccc(-c2cnn3ccc(C(=O)N(c4ccc(C#N)cn4)C4CCC4)cc23)nc1 [Example 155]		> 50000 nM	1010 nM	
CNC(=O)c1ccc(-c2cnn3ccc(C(=O)N(c4ccc(F)cn4)C(C)C)cc23)cn1 [Example 156]		> 50000 nM	15600 nM	
CCN(C(=O)c1ccn2ncc(-c3ccc(C(=O)NC)nc3)c2c1)c1ccc(C(F)(F)F)cn1 [Example 157]		8960 nM	295 nM	
CCN(C(=O)c1ccn2ncc(-c3ccc(S(C)(=O)=O)cc3)c2c1)c1ccc(C#N)cn1 [Example 158]		23000 nM	3750 nM	
CCN(C(=O)c1ccn2ncc(-c3ccc(C(=O)NC)nc3)c2c1)c1ccc(F)cn1 [Example 159]		9820 nM	5360 nM	
CNC(=O)c1ccc(-c2cnn3ccc(C(=O)N(c4ccc(C(F)(F)F)cn4)C4CCC4)cc23)cn1 [Example 161]		1220 nM	775 nM	
CNC(=O)c1ccc(-c2cnn3ccc(S(=O)(=O)N(C)c4ccc(C#N)cn4)cc23)cc1 [Example 163]		8480 nM	197 nM	
N#Cc1ccc(N(C2CC2)S(=O)(=O)c2ccn3ncc(-c4ccc(C(N)=O)cc4)c3c2)nc1 [Example 165]		6370 nM	607 nM	

— US20190030009A1, “COMPOUNDS AND COMPOSITIONS FOR THE TREATMENT OF CRYPTOSPORIDIOSIS” (Novartis AG, priority 2016, published 2019)
